Assay results: US20260356984A1, “DNA-AFFIBODY-DRUG NANOSTRUCTURES FOR INHIBITING TRIPLE NEGATIVE BREAST CANCER GROWTH AND METASTASIS” (ARIZONA BOARD OF REGENTS ON BEHALF OF ARIZONA STATE …, priority 2022, published 2026)

How the values were obtained:
TNBC = conditions: employed as a single agent; cited from earlier work
DNA tetrahedron = assay: DNA-THZ1 binding assay (G-25 column, UV absorption 220 nm)
Experimental: FIGS. 3A-3B. DNA-THZ1 binding assay. (A) Analysis of binding ratio of THZ1 to DNA tetrahedron using UV absorption of THZ1 (220 nm). DNA tetrahedron (0.2 μM) was added different amounts of THZ1 (2-12 μM). The unbound THZ1 was removed through a Sephadex G-25 column for the detection samples. (B) Analysis of THZ1 binding to DNA tetrahedron (TH)-4ZHER1 using 1% agarose gel electrophoresis. The gel was run at 110 V for 1 h, and stained with ethidium bromide. Lanes 1-5, […] DNA tetrahedron (TH)-4ZHER1 incubated with 0-200 folds of THZ1.
DNA-THZ1 binding assay: The DNA binding property of THZ1 was evaluated following our reported method.^43 DNA tetrahedron was incubated with 10-60 fold of THZ1. After purification with G-25 column to remove unbound THZ1, the amount of THZ1 in the DNA tetrahedron was measured using UV absorption at 220 nm. […] Then we used a 1% agarose gel to analyze the binding property for high concentrations of THZ1. […] Thus, we used 50-fold of THZ1 to prepare DNA tetrahedron-4ZHER1-THZ1 nanostructure (I) for following assays.

MDA-MB-231 cells = assay: Crosslinking assay of HER1 overexpressing TNBC cells; assay type: cell-based; conditions: 500 nM free THZ1; 24 h
Experimental: (§1) FIGS. 4A-4H. Crosslinking of BC cells induced by I. MB-231 cells without drug treatment (A, D); with 500 nM THZ1 (B, E); with 10 nM I (C, F) were incubated 24 h and 48 h, respectively. (G) Calculated crosslinking efficiency of MB-231 cells in the presence of 10 nM I in 24 h (p<0.001); (H) Calculated crosslinking efficiency of BT474 cells in the presence of 10 nM I in 24 h.
(§2) Crosslinking assay: Crosslinking of TNBC cells by I was verified using a HER1 overexpressing TNBC cell line (MDA-MB-23146). In the presence of nanostructure I (containing 50 copies of THZ1), the cells were effectively crosslinked to each other through multiple ZHER1-HER1 bindings. […] The crosslinking efficiency was up to 96% in 24 h (FIG. 4G). [Crosslinking efficiency (%)=(cell number without any treatment-non-aggregated cell number)× 100%/(cell number without any treatment). Data were reported as the mean of three independent experiments].

MB-231 cells = assay: Growth/death of MB-231 cells after 48 h incubation; assay type: cell-based; conditions: 500 nM THZ1
Experimental: as §1, §2

[1] = test system: MB231 breast cancer cells; assay: Transwell migration assay; assay type: cell-based; conditions: 500 nM THZ1; 24 h; p<0.001
Experimental: (§3) FIGS. 5A-5E. Migration assays for MB231 breast cancer cells. (A) without drug treatment; (B) treatment with THZ1; (C) treatment with nanostructure I; (D) Migration rate of MB231 (migrated cell numbers/control cell numbers×100%) (p<0.001); (E) Invasion rate of MB231 (invaded cell numbers/control cell numbers×100%) (p<0.001).
Migration assay: To verify whether nanostructure I blocks TNBC cell dissociation from aggregated cell clusters, a Transwell™ migration assay was performed. […] Since nanostructure I contains the same amount of THZ1, the enhanced inhibition of migration by nanostructure I is attributed to its ability to crosslink the cells. As a negative control, the migration of HER1 negative BT474 BC cells were not inhibited by I (FIG. 6A).

MB231 cancer cells = assay: Invasion assay (matrigel treated Transwell); assay type: cell-based; conditions: 500 nM THZ1; 24 h; p<0.001
Experimental: as §3
Invasion assay: To verify whether nanostructure I blocks cells from passing through vessel walls, an invasion assay was performed using a matrigel matrix treated Transwell™ to mimic the vessel wall. […] As a negative control, the invasion of HER1 negative BT474 BC cells were not affected by I (FIG. 6B).

[2] = test system: double-strand linear DNA (20 bp, 40 bp and 60 bp); assay: Linear double-strand DNA binding to THZ1 (1% agarose gel); conditions: 40-160 mM THZ1
Experimental: FIG. 9. Verification of linear DNA binding to THZ1. Double-strand linear DNAs were mixed with different amounts of THZ1 and loaded on 1% agarose gel. The gels were run at 150 V for 20 min, and stained with EtBr.
Binding of DNA to THZ1 was evaluated (FIG. 9). Double-strand linear DNAs (20 bp, 40 bp and 60 bp) were prepared by mixing two complimentary DNAs (as listed below) in 50 mM Tris-HCl, pH 7.5, containing 50 mM NaCl. The reaction mixtures were heated at 90 °C for 5 min, then cool to room temperature. To keep the same base-pair number for each same, the 20 bp DNA was adjusted to 2 mM; 40 bp DNA was adjusted to 1 mM; 60 bp DNA was adjusted to 0.67 mM. Then 40-160 mM THZ1 were added to each sample and loaded on 1% agarose gel.

breast cancer = breast cancer patients; cited from earlier work

panitumumab: Anti-HER1 monoclonal antibody
benefit to TNBC patients (TNBC): neither antibody confers significant benefit to TNBC patients

CN(C)C/C=C/C(=O)Nc1ccc(C(=O)Nc2cccc(Nc3ncc(Cl)c(-c4c[nH]c5ccccc45)n3)c2)cc1 [THZ1]
concentration of THZ1 in DNA tetrahedron (DNA tetrahedron; 0.2 μM DNA tetrahedron, ratio THZ1/DNA tetrahedron 10 to 50, UV 220 nm after G-25 column): increased linearly | passage of THZ1/DNA complex through G-25 column (DNA tetrahedron; ratio THZ1/DNA tetrahedron 60): part of THZ1/DNA complex did not pass through the G-25 column | cell aggregation (MDA-MB-231 cells): not aggregated | cell growth (MB-231 cells): partially growth inhibited | inhibition of migration [1]: 57% | inhibition of invasion (MB231 cancer cells): 51% | binding to double-strand DNA [2]: can bind to double-strand DNA

Patritumab deruxtecan: HER3 antibody drug conjugate
clinical activity (breast cancer): early and clinically meaningful activity
